Experimental data taken from ChEMBL document CHEMBL3877252, “Fluorescein hydrazones: A series of novel non-intercalative topoisomerase IIα catalytic inhibitors induce G1 arrest and apoptosis in breast and colon cancer cells” (Eur J Med Chem, 2017).

Tests used:
[1] = target: DNA topoisomerase 2-alpha (Homo sapiens) (UniProt P11388); assay: Inhibition of human topoisomerase-2 alpha assessed as inhibition of relaxation of supercoiled pBR322 plasmid DNA at 100 uM measured after 1 hr by ethidium bromide staining based agarose gel electrophoresis relative to control
[2] = target: T1, DNA topoisomerase 1 (Homo sapiens) (UniProt P11387); assay: Inhibition of human topoisomerase-1 assessed as inhibition of relaxation of supercoiled pBR322 plasmid DNA at 100 uM measured after 1 hr by ethidium bromide staining based agarose gel electrophoresis relative to control
T1 sequence (whole entry): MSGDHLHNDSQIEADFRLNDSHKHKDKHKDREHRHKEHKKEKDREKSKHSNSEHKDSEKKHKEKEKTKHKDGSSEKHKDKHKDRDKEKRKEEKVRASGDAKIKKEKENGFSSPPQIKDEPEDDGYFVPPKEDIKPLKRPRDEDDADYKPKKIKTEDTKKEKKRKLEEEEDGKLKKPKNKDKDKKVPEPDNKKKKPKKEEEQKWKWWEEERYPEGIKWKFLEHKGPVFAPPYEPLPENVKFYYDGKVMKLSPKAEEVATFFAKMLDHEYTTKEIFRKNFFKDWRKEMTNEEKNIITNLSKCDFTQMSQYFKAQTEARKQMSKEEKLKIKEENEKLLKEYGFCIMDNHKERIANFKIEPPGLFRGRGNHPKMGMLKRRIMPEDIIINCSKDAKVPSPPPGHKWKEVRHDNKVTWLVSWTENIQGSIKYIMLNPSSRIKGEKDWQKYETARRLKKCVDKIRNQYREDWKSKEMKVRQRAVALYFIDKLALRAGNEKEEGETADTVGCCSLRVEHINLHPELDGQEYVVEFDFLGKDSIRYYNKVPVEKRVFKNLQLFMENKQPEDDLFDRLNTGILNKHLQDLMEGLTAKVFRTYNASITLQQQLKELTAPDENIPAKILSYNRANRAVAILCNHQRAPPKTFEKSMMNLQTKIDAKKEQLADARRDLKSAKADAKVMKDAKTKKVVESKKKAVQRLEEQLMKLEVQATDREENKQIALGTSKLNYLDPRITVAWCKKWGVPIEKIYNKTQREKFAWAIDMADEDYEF

[3] = target: T1, DNA topoisomerase 1 (Homo sapiens); assay: Inhibition of human topoisomerase-1 assessed as inhibition of relaxation of supercoiled pBR322 plasmid DNA at 20 uM measured after 1 hr by ethidium bromide staining based agarose gel electrophoresis relative to control

DNA topoisomerase 2-alpha (Homo sapiens), sequence (P11388 whole entry): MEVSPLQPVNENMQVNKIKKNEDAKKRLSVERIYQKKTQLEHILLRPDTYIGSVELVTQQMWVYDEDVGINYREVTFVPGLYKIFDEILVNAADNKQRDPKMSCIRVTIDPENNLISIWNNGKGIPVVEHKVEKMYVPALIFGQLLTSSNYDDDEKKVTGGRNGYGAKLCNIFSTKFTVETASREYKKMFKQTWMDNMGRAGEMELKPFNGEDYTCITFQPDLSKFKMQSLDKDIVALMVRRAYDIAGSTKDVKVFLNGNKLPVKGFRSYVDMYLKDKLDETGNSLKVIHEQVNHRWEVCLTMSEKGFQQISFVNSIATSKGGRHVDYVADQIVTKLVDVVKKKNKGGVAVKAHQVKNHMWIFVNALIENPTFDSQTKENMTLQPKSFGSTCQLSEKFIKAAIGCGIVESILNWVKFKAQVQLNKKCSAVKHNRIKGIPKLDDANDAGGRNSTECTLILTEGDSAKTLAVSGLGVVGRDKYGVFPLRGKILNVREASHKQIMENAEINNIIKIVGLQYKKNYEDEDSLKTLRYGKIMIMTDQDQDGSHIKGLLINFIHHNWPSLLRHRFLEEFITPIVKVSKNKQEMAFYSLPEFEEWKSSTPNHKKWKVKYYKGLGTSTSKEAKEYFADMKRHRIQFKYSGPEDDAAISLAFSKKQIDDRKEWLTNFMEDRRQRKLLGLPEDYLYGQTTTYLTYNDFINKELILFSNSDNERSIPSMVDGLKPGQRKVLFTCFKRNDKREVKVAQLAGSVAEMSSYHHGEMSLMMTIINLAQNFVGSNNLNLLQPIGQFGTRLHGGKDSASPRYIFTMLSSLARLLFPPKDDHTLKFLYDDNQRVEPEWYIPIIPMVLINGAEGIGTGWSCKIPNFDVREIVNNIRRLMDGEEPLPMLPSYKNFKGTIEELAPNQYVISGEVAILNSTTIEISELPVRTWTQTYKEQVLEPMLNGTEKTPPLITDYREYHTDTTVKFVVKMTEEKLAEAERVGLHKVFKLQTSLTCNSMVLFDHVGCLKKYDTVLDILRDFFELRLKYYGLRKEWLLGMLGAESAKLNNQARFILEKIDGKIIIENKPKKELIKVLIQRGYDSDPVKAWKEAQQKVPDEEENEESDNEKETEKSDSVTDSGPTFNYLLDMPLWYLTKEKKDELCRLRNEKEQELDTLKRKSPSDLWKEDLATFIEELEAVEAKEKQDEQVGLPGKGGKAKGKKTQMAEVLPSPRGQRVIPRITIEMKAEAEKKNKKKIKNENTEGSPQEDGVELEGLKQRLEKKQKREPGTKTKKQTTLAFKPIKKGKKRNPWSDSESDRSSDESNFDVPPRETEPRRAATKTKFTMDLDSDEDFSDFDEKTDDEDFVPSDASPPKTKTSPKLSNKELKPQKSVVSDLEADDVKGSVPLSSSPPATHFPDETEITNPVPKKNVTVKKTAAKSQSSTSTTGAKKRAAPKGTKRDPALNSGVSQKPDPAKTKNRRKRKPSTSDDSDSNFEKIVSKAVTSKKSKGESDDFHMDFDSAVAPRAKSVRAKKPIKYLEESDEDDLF

| inhibition [1] | inhibition [2] | inhibition [3] | Compound |
| --- | --- | --- | --- |
| 5.4% | 44.6% | 9.8% | CCOc1ccc2c(c1)Oc1cc(OC(=O)c3ccccc3)ccc1C21c2ccccc2C(=O)N1/N=C/c1ccc(OC)cc1 (stereo unspecified) |
| 8.5% | 14.4% | – | CCOc1ccc2c(c1)Oc1cc(OC(=O)c3ccccc3Cl)ccc1C21c2ccccc2C(=O)N1/N=C/c1ccc(Cl)cc1Cl (stereo unspecified) |
| 13.1% | 30.1% | 24.6% | CCOc1ccc2c(c1)Oc1cc(OC(=O)c3ccccc3Cl)ccc1C21c2ccccc2C(=O)N1/N=C/c1ccc(OC(=O)c2ccccc2Cl)cc1 (stereo unspecified) |
| 6.1% | 55.4% | 0% | CCOc1ccc2c(c1)Oc1cc(OC(=O)c3ccccc3)ccc1C21c2ccccc2C(=O)N1/N=C/c1ccccc1[N+](=O)[O-] (stereo unspecified) |
| 7% | 0% | – | CCOc1ccc2c(c1)Oc1cc(OC(=O)c3ccccc3Cl)ccc1C21c2ccccc2C(=O)N1/N=C/c1cccc(OC(=O)c2ccccc2Cl)c1 (stereo unspecified) |
| 6.2% | 19% | – | CCOc1ccc2c(c1)Oc1cc(OC(=O)c3ccccc3OC)ccc1C21c2ccccc2C(=O)N1/N=C/c1ccccc1[N+](=O)[O-] (stereo unspecified) |
| 6.5% | 4.2% | – | CCOc1ccc2c(c1)Oc1cc(OC(=O)c3ccccc3OC)ccc1C21c2ccccc2C(=O)N1/N=C/c1ccc(Cl)cc1 (stereo unspecified) |

The next lines start with the compound.

| Compound | inhibition [1] | inhibition [2] | inhibition [3] |
| --- | --- | --- | --- |
| CCOc1ccc2c(c1)Oc1cc(OC(=O)c3ccccc3[N+](=O)[O-])ccc1C21c2ccccc2C(=O)N1/N=C/c1ccccc1[N+](=O)[O-] (stereo unspecified) | 7.5% | 16.9% | – |
| CCOc1ccc2c(c1)Oc1cc(OC(=O)c3ccccc3OC)ccc1C21c2ccccc2C(=O)N1/N=C/c1ccc(Cl)cc1Cl (stereo unspecified) | 25% | 69.2% | 10% |
| CCOc1ccc2c(c1)Oc1cc(OC(=O)c3ccccc3Cl)ccc1C21c2ccccc2C(=O)N1/N=C/c1ccccc1OC(=O)c1ccccc1Cl (stereo unspecified) | 11.1% | 0% | – |
| CCOc1ccc2c(c1)Oc1cc(OC(=O)c3ccccc3Cl)ccc1C21c2ccccc2C(=O)N1/N=C/c1ccc(OC)cc1 (stereo unspecified) | 5.6% | 3.3% | – |
| CCOc1ccc2c(c1)Oc1cc(OC(=O)c3ccccc3[N+](=O)[O-])ccc1C21c2ccccc2C(=O)N1/N=C/c1ccc(OC(=O)c2ccccc2[N+](=O)[O-])cc1 (stereo unspecified) | 13.2% | 22.7% | – |
| CCOc1ccc2c(c1)Oc1cc(OC(=O)c3ccccc3Cl)ccc1C21c2ccccc2C(=O)N1/N=C/c1ccc(OC)c(OC(=O)c2ccccc2Cl)c1 (stereo unspecified) | 4.8% | 86.6% | 1.7% |
| CCOc1ccc2c(c1)Oc1cc(OC(=O)c3ccccc3[N+](=O)[O-])ccc1C21c2ccccc2C(=O)N1/N=C/c1ccc(Cl)cc1 (stereo unspecified) | 10.8% | 12.9% | – |
| CCOc1ccc2c(c1)Oc1cc(OC(=O)c3ccccc3[N+](=O)[O-])ccc1C21c2ccccc2C(=O)N1/N=C/c1cccc(OC(=O)c2ccccc2[N+](=O)[O-])c1 (stereo unspecified) | 6.6% | 0% | – |
| CCOc1ccc2c(c1)Oc1cc(OC(=O)c3ccccc3)ccc1C21c2ccccc2C(=O)N1/N=C/c1ccccc1OC (stereo unspecified) | 6.9% | 81.3% | 48.1% |
| CCOc1ccc2c(c1)Oc1cc(OC(=O)c3ccccc3[N+](=O)[O-])ccc1C21c2ccccc2C(=O)N1/N=C/c1ccc(OC)c(OC(=O)c2ccccc2[N+](=O)[O-])c1 (stereo unspecified) | 3.9% | 87.2% | 15.8% |
| CCOc1ccc2c(c1)Oc1cc(OC(=O)c3ccccc3)ccc1C21c2ccccc2C(=O)N1/N=C/c1ccc(Cl)cc1 (stereo unspecified) | 7% | 9.4% | – |
| CCOc1ccc2c(c1)Oc1cc(OC(=O)c3ccccc3)ccc1C21c2ccccc2C(=O)N1/N=C/c1ccc(Cl)cc1Cl (stereo unspecified) | 25.3% | 99.9% | 2.5% |
| CCOc1ccc2c(c1)Oc1cc(OC(=O)c3ccccc3OC)ccc1C21c2ccccc2C(=O)N1/N=C/c1cccc(OC(=O)c2ccccc2OC)c1 (stereo unspecified) | 2.8% | 0% | – |
| CCOc1ccc2c(c1)Oc1cc(OC(=O)c3ccccc3)ccc1C21c2ccccc2C(=O)N1/N=C/c1ccc(OC(=O)c2ccccc2)cc1 (stereo unspecified) | 7.9% | 75.3% | 9.2% |
